Laboratory results taken from ChEMBL document CHEMBL1129595, “Potent 6-desfluoro-8-methylquinolones as new lead compounds in antibacterial chemotherapy” (J Med Chem, 1996).
≈ marks a conversion by molar mass, not a printed value.

What was measured:
Staphylococcus aureus [1] = assay: In vitro antibacterial activity against Staphylococcus aureus MPR 5; format: functional
Staphylococcus aureus [2] = assay: In vitro antibacterial activity against Staphylococcus aureus CPX-R OBT 687; format: functional
Proteus vulgaris = assay: In vitro antibacterial activity against Proteus vulgaris CNUR 6; format: functional
Escherichia coli [3] = assay: In vitro antibacterial activity against Escherichia coliCPX-R OBT 431; format: functional
DNA gyrase = DNA gyrase (Escherichia coli, UniProt P0AES4+P0AES6); assay: Inhibitory effect against Escherichia coli Gyrase in Supercoiling assay; format: protein-complex assay
Enterococcus faecalis [4] = assay: In vitro antibacterial activity against Enterococcus faecalis LEP Br; format: functional
Escherichia coli [5] = assay: In vitro antibacterial activity against Escherichia coli 120; format: functional
Haemophilus influenzae = assay: In vitro antibacterial activity against Haemophilus influenzae; format: functional
Staphylococcus aureus [6] = assay: In vitro antibacterial activity against Staphylococcus aureus ATCC 29213; format: functional
Escherichia coli [7] = assay: In vitro antibacterial activity against Escherichia coli ATCC 25922; format: functional
Pseudomonas aeruginosa [8] = assay: In vitro antibacterial activity against Pseudomonas aeruginosa […] 9027; format: functional
Proteus mirabilis = assay: In vitro antibacterial activity against Proteus mirabilis OBT 505; format: functional
Staphylococcus aureus [9] = assay: In vitro antibacterial activity against Staphylococcus aureus M-R POMM 6214; format: functional
[10] = Mean MIC against gram positive; format: functional
[11] = Mean MIC against gram negative; format: functional
Streptococcus pyogenes = assay: In vitro antibacterial activity against Streptococcus pyogenes OMNFI BI; format: functional
Streptococcus pneumoniae = assay: In vitro antibacterial activity against Streptococcus pneumoniae I 0.43; format: functional
Pseudomonas aeruginosa [12] = assay: In vitro antibacterial activity against Pseudomonas aeruginosa OBT 307; format: functional
Enterobacter cloacae = assay: In vitro antibacterial activity against Enterobacter cloacae OMNFI 174; format: functional
Klebsiella pneumoniae = assay: In vitro antibacterial activity against Klebsiella pneumoniae ATCC 10031; format: functional
Enterococcus faecalis [13] = assay: In vitro antibacterial activity against Enterococcus faecalis UCMC 39690; format: functional

SMILES | MIC (Staphylococcus aureus [1]) [µg/mL] | MIC (Staphylococcus aureus [2]) [µg/mL] | MIC (Proteus vulgaris) [µg/mL] | MIC (Escherichia coli [3]) [µg/mL] | IC50 (DNA gyrase) [µM] | MIC (Enterococcus faecalis [4]) [µg/mL] | MIC (Escherichia coli [5]) [µg/mL] | MIC (Haemophilus influenzae) [µg/mL] | MIC (Staphylococcus aureus [6]) [µg/mL] | MIC (Escherichia coli [7]) [µg/mL] | MIC (Pseudomonas aeruginosa [8]) [µg/mL] | MIC (Proteus mirabilis) [µg/mL] | MIC (Staphylococcus aureus [9]) [µg/mL] | MIC [10] [µg/mL] | MIC (Streptococcus pyogenes) [µg/mL] | MIC (Streptococcus pneumoniae) [µg/mL] | MIC (Pseudomonas aeruginosa [12]) [µg/mL] | MIC (Enterobacter cloacae) [µg/mL] | MIC (Klebsiella pneumoniae) [µg/mL] | MIC (Enterococcus faecalis [13]) [µg/mL] | other results
Cc1c(N2CCSCC2)ccc2c(=O)c(C(=O)O)cn(C3CC3)c12 | > 0.016 | 2 (≈ 5.81 µM) | 16 (≈ 46.5 µM) | > 16 |  | 1 (≈ 2.9 µM) | 0.25 (≈ 0.726 µM) | < 0.016 | > 0.016 | 0.125 (≈ 0.363 µM) | 4 (≈ 11.6 µM) | 4 (≈ 11.6 µM) | > 0.016 |  | 0.5 (≈ 1.45 µM) | 1 (≈ 2.9 µM) | 16 (≈ 46.5 µM) | 1 (≈ 2.9 µM) | < 0.016 | 0.5 (≈ 1.45 µM) | 
Cc1c(N2CC(C)OC(C)C2)ccc2c(=O)c(C(=O)O)cn(C3CC3)c12 (stereo unspecified) | < 0.016 | 1 (≈ 2.81 µM) | > 16 | > 16 |  | 1 (≈ 2.81 µM) | 0.5 (≈ 1.4 µM) | 1 (≈ 2.81 µM) | 0.125 (≈ 0.351 µM) | 1 (≈ 2.81 µM) | 16 (≈ 44.9 µM) | 16 (≈ 44.9 µM) | 0.03 (≈ 0.0842 µM) |  | 0.5 (≈ 1.4 µM) | 0.5 (≈ 1.4 µM) | 16 (≈ 44.9 µM) | 2 (≈ 5.61 µM) | 0.125 (≈ 0.351 µM) | 0.25 (≈ 0.701 µM) | 
Cc1c(N2CCC(O)CC2)ccc2c(=O)c(C(=O)O)cn(C3CC3)c12 | < 0.016 | 0.5 (≈ 1.46 µM) | 8 (≈ 23.4 µM) | > 16 |  | 0.5 (≈ 1.46 µM) | 0.06 (≈ 0.175 µM) | 0.25 (≈ 0.73 µM) | < 0.016 | 0.06 (≈ 0.175 µM) | 2 (≈ 5.84 µM) | 2 (≈ 5.84 µM) | < 0.016 |  | 2 (≈ 5.84 µM) | 0.25 (≈ 0.73 µM) | 16 (≈ 46.7 µM) | 0.25 (≈ 0.73 µM) | < 0.016 | 0.125 (≈ 0.365 µM) | 
Cc1c(N2CCC(C)CC2)ccc2c(=O)c(C(=O)O)cn(C3CC3)c12 | < 0.016 | 1 (≈ 2.94 µM) | 4 (≈ 11.8 µM) | > 16 |  | 0.5 (≈ 1.47 µM) | 0.06 (≈ 0.176 µM) | < 0.016 | < 0.016 | 0.03 (≈ 0.0881 µM) | 2 (≈ 5.88 µM) | 2 (≈ 5.88 µM) | < 0.016 |  | 0.125 (≈ 0.367 µM) | 0.25 (≈ 0.734 µM) | 8 (≈ 23.5 µM) | 0.25 (≈ 0.734 µM) | < 0.016 | 0.03 (≈ 0.0881 µM) | 

More lines, main results first:

MIC (Staphylococcus aureus [1]) [µg/mL] | MIC (Staphylococcus aureus [2]) [µg/mL] | MIC (Proteus vulgaris) [µg/mL] | MIC (Escherichia coli [3]) [µg/mL] | IC50 (DNA gyrase) [µM] | MIC (Enterococcus faecalis [4]) [µg/mL] | MIC (Escherichia coli [5]) [µg/mL] | MIC (Haemophilus influenzae) [µg/mL] | MIC (Staphylococcus aureus [6]) [µg/mL] | MIC (Escherichia coli [7]) [µg/mL] | MIC (Pseudomonas aeruginosa [8]) [µg/mL] | MIC (Proteus mirabilis) [µg/mL] | MIC (Staphylococcus aureus [9]) [µg/mL] | MIC [10] [µg/mL] | MIC (Streptococcus pyogenes) [µg/mL] | MIC (Streptococcus pneumoniae) [µg/mL] | MIC (Pseudomonas aeruginosa [12]) [µg/mL] | MIC (Enterobacter cloacae) [µg/mL] | MIC (Klebsiella pneumoniae) [µg/mL] | MIC (Enterococcus faecalis [13]) [µg/mL] | SMILES | other results
< 0.016 | 2 (≈ 5.14 µM) | 8 (≈ 20.5 µM) | > 16 | 9.24 | 0.25 (≈ 0.642 µM) | 0.125 (≈ 0.321 µM) | < 0.016 | < 0.016 | 0.125 (≈ 0.321 µM) | 8 (≈ 20.5 µM) | > 16 | < 0.016 | 0.075 (≈ 0.193 µM) | < 0.016 | 0.25 (≈ 0.642 µM) | > 16 | 0.5 (≈ 1.28 µM) | 0.03 (≈ 0.077 µM) | 0.125 (≈ 0.321 µM) | Cc1c(N2CCc3ccccc3C2)c(N)cc2c(=O)c(C(=O)O)cn(C3CC3)c12 | MIC [11]: 0.998 µg/mL (≈ 2.56 µM)
< 0.016 | 0.125 (≈ 0.363 µM) | 2 (≈ 5.81 µM) | 16 (≈ 46.5 µM) | 6.97 | 0.03 (≈ 0.0871 µM) | < 0.016 | < 0.016 | < 0.016 | < 0.016 | 1 (≈ 2.9 µM) | 1 (≈ 2.9 µM) | < 0.016 | 0.022 (≈ 0.0639 µM) | < 0.016 | < 0.016 | 4 (≈ 11.6 µM) | 0.5 (≈ 1.45 µM) | < 0.016 | < 0.016 | Cc1c(N2CCCCC2)c(F)cc2c(=O)c(C(=O)O)cn(C3CC3)c12 | MIC [11]: 0.29 µg/mL (≈ 0.842 µM)
< 0.016 | 1 (≈ 3.06 µM) | 8 (≈ 24.5 µM) | > 16 | 10.1 | 1 (≈ 3.06 µM) | 0.03 (≈ 0.0919 µM) | < 0.016 | < 0.016 | 0.03 (≈ 0.0919 µM) | 4 (≈ 12.3 µM) | 4 (≈ 12.3 µM) | < 0.016 | 0.052 (≈ 0.159 µM) | 0.03 (≈ 0.0919 µM) | < 0.016 | 16 (≈ 49 µM) | 0.25 (≈ 0.766 µM) | < 0.016 | 0.03 (≈ 0.0919 µM) | Cc1c(N2CCCCC2)ccc2c(=O)c(C(=O)O)cn(C3CC3)c12 | MIC [11]: 0.534 µg/mL (≈ 1.64 µM)
0.03 (≈ 0.0801 µM) | 2 (≈ 5.34 µM) | > 16 | > 16 | 20.8 | 1 (≈ 2.67 µM) | 2 (≈ 5.34 µM) | 0.06 (≈ 0.16 µM) | < 0.016 | 1 (≈ 2.67 µM) | > 16 | > 16 | 0.25 (≈ 0.668 µM) | 0.272 (≈ 0.726 µM) | 0.25 (≈ 0.668 µM) | 1 (≈ 2.67 µM) | > 16 | 0.03 (≈ 0.0801 µM) | 0.125 (≈ 0.334 µM) | 0.5 (≈ 1.34 µM) | Cc1c(N2CCc3ccccc3C2)ccc2c(=O)c(C(=O)O)cn(C3CC3)c12 | MIC [11]: 1.85 µg/mL (≈ 4.94 µM)
